In the test the test system is primary human T-cells. Nature of the test: T-cell proliferation assay (CellTiter-Glo). The test is classed as cell-based. Particulars: Homo sapiens, T-cell, 120 h, isomer A; for EC50: CD3 antibody-stimulated T-cells, CellTiter-Glo after 5 days, read-out: Tcell Proliferation CD3 EC50; for Emax: CD3 condition, 5 days, 20 μM reference compound A1 = 100%, DMSO neutral control, read-out: Emax proliferation (% activation). As for the experimental part: Expanded primary human T-cells are thawed and cultured in RPMI 1640 (Gibco, #61870-010)+5% human serum (HS, Sigma, #H3667)+1 mM Sodium Pyruvate (Gibco, #11360-039)+50 μM 2-mercaptoethanol (Gibco, #31350-010) and 1× Pen-Strep (Life Technologies, #15140122) medium at density of 2 Mio/ml for 3 hours in 5% CO2, 37° C. and 95% humidity. For coating of plates, PBS++ only or PBS++ with CD3 antibody (concentration depending on donor and determined by CD3 titrations) is added 100 μl/well to Poly-D Lysine coated 96-well plates. Plates are sealed and incubated at room temperature for 3 hours on a table-top rocking platform. After incubation, plates are washed once with PBS−− and filled with 40 μl/well culture medium only. Compounds are then added (see next section) to medium only plates. After 3 hours of culturing the T-cells, cells are filtered through a cell strainer (Miltenyi Biotech, #130-041-407), counted again and concentration is adjusted to 1.25 Mio/ml.
Cells are then seeded 80 μl/well to the 40 μl/well including dispensed compounds according to plate layout. By adding cells, compounds are further diluted 1:3, and resulting in 100k cells/120 μl/well. After 48 hours 40 μl of supernatant is collected carefully from the top while not disturbing the cells. Cells are assessed for proliferation 5 days later by measuring […] using CellTiterGlo (Promega).
Compounds were added in a 5 or 6 pt dose response with the Tecan D300e Digital Dispenser, all conditions 3 times more concentrated than the end-concentration, since cells are added afterwards (80 μl cells to 40 μl prepared medium with treatment). The DR was starting at 20 μM or 10 μM final top concentration and a dilution factor of 3.333. The positive control was the reference compound A1 that was added in a dose response as well, additionally to 3 wells of only 20 μM representing the positive stimulator control. All wells were normalized with DMSO to a final concentration of 0.6% (0.2% end-concentration).
After 5 days, for detection of ATP which is directly proportional to the number of cells present per well, the CellTiter-Glo® 2.0 Reagent is used. After visual control for toxicity or precipitations of the tested compounds, the plates are equilibrated to room temperature for 45 minutes. CellTiter-Glo® 2.0 Reagent is equilibrated to room temperature as well. After equilibration, an equal amount of CellTiter-Glo reagent is added to the cells (80 μl/well) with an electronic multichannel pipette. Plates are placed on a rocking platform for 15 minutes at room temperature. After incubation, the bottom of the plates is sealed with backing tape. Luminescence is measured with PHERAstar FSX (interval time 0.5 sec, gain 3000, focal height 15 mm) and exported as CSV file for analysis in Genedata screener.
CD3 and PBS plates were analysed separately in Genedata Screener using Roche Normalization PCT_POS_CTRL with DMSO set as Neutral Control and 20 μM of the reference compound A1 set as Stimulator Control/100%.
For CD3 conditions EC50 and Emax of the fitted sigmoidal curve were reported. If no curve could be fitted, the EC50 was reported as blank field and the Emax was based on individual data points. […] Compounds which activate unstimulated cells (see IL2 measurements) or compounds which negatively affected viability were flagged.
(In ATP-based viability assays light output follows the ATP content of the culture.)

In the case of `CC(C)(C#N)c1nnc(-c2cc3c(cc2F)C(F)(F)CC(N)C(=O)N3Cc2ccc(-n3cc(C(F)(F)F)cn3)cc2)o1` (racemic) [Example 33, 2-[5-[(3S)-3-amino-5,5,7-trifluoro-2-oxo-1-[[4-[4-(trifluoromethyl)pyrazol-1-yl]phenyl]methyl]-3,4-dihydro-1-benzazepin-8-yl]-1,3,4-oxadiazol-2-yl]-2-methyl-propanenitrile and 2-[5-[(3R)-3-amino-5,5,7-trifluoro-2-oxo-1-[[4-[4-(trifluoromethyl)pyrazol-1-yl]phenyl]methyl]-3,4-dihydro-1-benzazepin-8-yl]-1,3,4-oxadiazol-2-yl]-2-methyl-propanenitrile], the EC50 was found to be 0.0988 µM and the Emax worked out at 128%.

Regarding `CC(C)(C)c1nnc(-c2cc3c(cc2F)C(F)(F)C[C@@H](N)C(=O)N3Cc2ccc(OC3CCCC3)cc2)o1` (single isomer, unassigned) [Example 7], the EC50 stood at 0.127 µM and the Emax was found to be 110%.

Turning to `COc1ccc(-c2ccc(CN3C(=O)[C@H](N)CC(F)(F)c4cc(F)c(-c5nnc(C(C)(C)S(C)(=O)=O)o5)cc43)cc2)cc1` (single isomer, unassigned) [Example 10], the EC50 is 0.377 µM and the Emax was 76%.

With `CCN1CC(c2nnc(-c3cc4c(cc3F)C(F)(F)C[C@@H](N)C(=O)N4Cc3ccc(OC(F)(F)F)cc3)o2)CC(F)(F)C1` (single isomer, unassigned) [Example 13], the EC50 came out at 0.0777 µM and the Emax stood at 79%.

For the compound `N[C@@H]1CC(F)(F)c2cc(F)c(-c3nnc(N4CCC(F)(F)CC4)o3)cc2N(Cc2ccc(-c3noc(C(F)(F)F)n3)cc2)C1=O` (single isomer, unassigned) [Example 15], the EC50 is 0.127 µM and the Emax turned out to be 108%.

On to `CC(C)(C#N)c1nnc(-c2cc3c(cc2F)C(F)(F)C[C@@H](N)C(=O)N3Cc2ccc(-c3ncc(C(F)(F)F)cc3F)cc2)o1` (single isomer, unassigned) [Example 19], for which the EC50 amounted to 0.984 µM and the Emax stood at 85%.

As for `CC(C)(C#N)c1nnc(-c2cc3c(cc2F)C(F)(F)C[C@@H](N)C(=O)N3Cc2ccc(-n3nnc(C(F)(F)F)n3)cc2)o1` (single isomer, unassigned) [Example 20], the EC50 was 0.205 µM and the Emax came to 118%.

For the compound `N[C@@H]1CC(F)(F)c2cc(F)c(-c3nnc(N4CCCC4)o3)cc2N(Cc2ccc(-n3cnc(C(F)(F)F)n3)cc2)C1=O` (single isomer, unassigned) [Example 21], the EC50 was more than 10 µM and the Emax is 43%.

Take `N[C@@H]1CC(F)(F)c2cc(F)c(-c3nnc(N4CCC(F)(F)C4)o3)cc2N(Cc2ccc(-n3cnc(C(F)(F)F)n3)cc2)C1=O` (single isomer, unassigned) [Example 22]: the EC50 was 2.11 µM and the Emax came to 62%.

In the case of `CC(C)(c1nnc(-c2cc3c(cc2F)C(F)(F)C[C@@H](N)C(=O)N3Cc2ccc(-n3cnc(C(F)(F)F)n3)cc2)o1)S(C)(=O)=O` (single isomer, unassigned) [Example 23], the EC50 is more than 10 µM and the Emax stood at 98%.

As for `CC(C)(C#N)c1nnc(-c2cc3c(cc2F)C(F)(F)C[C@@H](N)C(=O)N3Cc2ccc(-c3ccc(OC(F)(F)F)cn3)cc2)o1` (single isomer, unassigned) [Example 24], the EC50 is 0.161 µM and the Emax amounted to 129%.

For the compound `CC(C)(c1nnc(-c2cc3c(cc2F)C(F)(F)C[C@@H](N)C(=O)N3Cc2ccc(-c3ccc(OC(F)(F)F)cn3)cc2)o1)S(C)(=O)=O` (single isomer, unassigned) [Example 26], the EC50 turned out to be 0.95 µM and the Emax amounted to 155%.

Take `CC(C)(C#N)c1nnc(-c2cc3c(cc2F)C(F)(F)C[C@@H](N)C(=O)N3Cc2ccc(-c3cc(C(F)(F)F)ccn3)cc2)o1` (single isomer, unassigned) [Example 27]: the EC50 was determined as 0.599 µM and the Emax was 79%.

`CC(C)(C#N)c1nnc(-c2cc3c(cc2F)C(F)(F)C[C@@H](N)C(=O)N3Cc2ccc(-c3ccc(C(F)(F)F)cc3)nc2)o1` (single isomer, unassigned) [Example 28]: the EC50 amounted to 0.978 µM and the Emax came out at 96%.

For the compound `CC(C)(c1nnc(-c2cc3c(cc2F)C(F)(F)C[C@@H](N)C(=O)N3Cc2ccc(-n3cc(C(F)(F)F)cn3)cc2)o1)S(C)(=O)=O` (single isomer, unassigned) [Example 29], the EC50 was 0.0917 µM and the Emax worked out at 93%.

Regarding `CC(C)(C#N)c1nnc(-c2cc3c(cc2F)C(F)(F)C[C@@H](N)C(=O)N3Cc2ccc(-n3ccc(C(F)(F)F)n3)cc2)o1` (single isomer, unassigned) [Example 30], the EC50 came out at 0.589 µM and the Emax was 94%.

Turning to `CC(C)(c1nnc(-c2cc3c(cc2F)C(F)(F)C[C@@H](N)C(=O)N3Cc2ccc(-c3ccc(C(F)(F)F)cc3)cc2)o1)S(C)(=O)=O` (single isomer, unassigned) [Example 32], the EC50 was 2.34 µM and the Emax was found to be 81%.

Consider `COCCN1CC(c2nnc(-c3cc4c(cc3F)C(F)(F)C[C@@H](N)C(=O)N4Cc3ccc(-c4ccc(C(F)(F)F)cn4)cc3)o2)CC(F)(F)C1` (single isomer, unassigned) [Example 34], for which the EC50 was found to be 1.22 µM and the Emax worked out at 75%.

On to `COC(=O)N1CC2CC(c3nnc(-c4cc5c(cc4F)C(F)(F)C[C@@H](N)C(=O)N5Cc4ccc(-c5ccc(C(F)(F)F)cn5)cc4)o3)(C2)C1` (single isomer, unassigned) [Example 35], for which the EC50 was 0.124 µM and the Emax came out at 128%.

For the compound `COC(=O)N1CC2CC(c3nnc(-c4cc5c(cc4F)C(F)(F)C[C@@H](N)C(=O)N5Cc4ccc(Cl)cc4)o3)(C2)C1` (single isomer, unassigned) [Example 36], the EC50 was found to be 0.168 µM and the Emax is 82%.

Regarding `CC(F)(F)c1ccc(-c2ccc(CN3C(=O)[C@H](N)CC(F)(F)c4cc(F)c(-c5nnc(C(C)(C)C#N)o5)cc43)cc2)nc1` (single isomer, unassigned) [Example 37], the EC50 turned out to be 0.215 µM and the Emax stood at 138%.

In the case of `COc1ccc(-c2ccc(CN3C(=O)[C@H](N)CC(F)(F)c4cc(F)c(-c5nnc(C(C)(C)C#N)o5)cc43)cc2)nc1` (single isomer, unassigned) [Example 38], the EC50 is 1.02 µM and the Emax was 105%.

Turning to `COc1ccc(-c2ccc(CN3C(=O)[C@H](N)CC(F)(F)c4cc(F)c(-c5nnc(C(C)(C)S(C)(=O)=O)o5)cc43)cc2)nc1` (single isomer, unassigned) [Example 39], the EC50 is 1.42 µM and the Emax was found to be 98%.

For the compound `CC(C)(C#N)c1nnc(-c2cc3c(cc2F)C(F)(F)C[C@@H](N)C(=O)N3Cc2ccc(-c3ccc(C(F)F)cn3)cc2)o1` (single isomer, unassigned) [Example 40], the EC50 was determined as 0.655 µM and the Emax turned out to be 99%.

On to `COC(=O)N1CC2CC(c3nnc(-c4cc5c(cc4F)C(F)(F)CC(N)C(=O)N5Cc4ccc(-c5noc(C(F)(F)F)n5)cc4)o3)(C2)C1` (single isomer, unassigned) [Example 42], for which the EC50 amounted to 1.26 µM and the Emax is 117%.

Regarding `CC(C)(C)c1nnc(-c2cc3c(cc2F)C(F)(F)CC(N)C(=O)N3Cc2ccc(OC(F)(F)F)cc2)o1` (stereo not shown) [Example 1, 3-amino-8-(5-tert-butyl-1,3,4-oxadiazol-2-yl)-5,5,7-trifluoro-1-[[4-(trifluoromethoxy)phenyl]methyl]-3,4-dihydro-1-benzazepin-2-one], the EC50 came out at 2.59 µM and the Emax worked out at 74%.

Source of the values: patent publication US20250236614A1, “BICYCLIC TETRAHYDROAZEPINE DERIVATIVES” (Hoffmann-La Roche Inc., priority 2022, published 2025).
